Measurements from patent EP2611847B1, “AMPHIPHILE FOR SOLUBILIZATION OF WATER-SOLUBLE ACTIVE INGREDIENTS” (BASF SE, priority 2010, dated 2012).
In brackets after ≈: the same amount, converted by molar mass. Like-named read-outs stand apart in the source and are kept apart here.

Assay: physchem
Type: physicochemical
Settings: for solubility thermodynamic at 24 h: thermodynamic from solid
Procedure: In einem 50 mL Becherglas wurden 100 mg Polymer eingewogen und in 9,900 g dest. Wasser gelöst. Anschließend wurde dem Ansatz jeweils 100 mg Wirkstoff zugewogen, um eine übersättigte Lösung zu erhalten. Das Gemisch wurde nun 24 h bei Raumtemperatur mit Hilfe eines Magnetrührers gerührt. Nach einstündiger Ruhezeit wurde überschüssiger (d.h. nicht solubilisierter) Wirkstoff durch Zentrifugieren abgetrennt. Die so erhaltene, klare bzw. opake Lösung wurde anschließend auf ihren Wirkstoffgehalt mittels UV-Spektroskopie untersucht. Die Wellenlänge der UV-spektroskopischen Messung sind in Tabelle 1 zusammengestellt. Die Ergebnisse sind in Tabelle 2 zusammengestellt.

[1] = active alone in dist. water without polymer (not according to the invention), 24 h at room temperature

Row | SMILES | Löslichkeit Ohne Polymer [1] | further results
1 | COC(=O)N(OC)c1ccccc1COc1ccn(-c2ccc(Cl)cc2)n1 [Pyraclostrobin] | 22,5 mg/l | 
2 | NC(=O)N1c2ccccc2C=Cc2ccccc21 [Carbamazepin] | 140 mg/L | 
3 | N#Cc1nn(-c2c(Cl)cc(C(F)(F)F)cc2Cl)c(N)c1[S+]([O-])C(F)(F)F (stereo not shown) [Fipronil] |  | solubility thermodynamic at 24 h (distilled water without polymer, active alone in dist. water without polymer (not according to the invention), 24 h at room temperature, read-out: Löslichkeit Ohne Polymer): 3 µg/mL (≈ 6.86 µM)
4 | CN1C(C(=O)Nc2ccccn2)=C(O)c2ccccc2S1(=O)=O [Piroxicam] |  | solubility thermodynamic at 24 h (water): 21 µg/mL (≈ 63.4 µM)
